Experimental data reported in patent US6737383B1, “Herbicidal oxadiazolidines” (priority 1999, dated 2004).

What was measured:
sugar beet = assay: Test E sugar beet; type: in vivo, Beta vulgaris; conditions: Preemergence; for Sugar beet plant response rating (0 to 100 scale): Rate 250 g/ha
large crabgrass = assay: Test C postemergence large crabgrass; type: in vivo, Digitaria sanguinalis; conditions: 0 to 100 scale, 0 no effect, 100 complete control
Experimental: (§1) Compounds evaluated in this test were formulated in a non-phytotoxic solvent mixture which included a surfactant and applied to plants that were grown for various periods of time before treatment (postemergence application). A mixture of sandy loam soil and greenhouse potting mix in a 60:40 ratio was used for the postemergence test.
(§2) Plantings of these crops and weed species were adjusted to produce plants of appropriate size for the postemergence test. All plant species were grown using normal greenhouse practices. Crop and weed species include arrowleaf sida (Sida rhombifolia), barnyardgrass (Echinochloa crus-galli), cocklebur (Xanthium strumarium), common ragweed (Ambrosia elatior), corn (Zea mays), cotton (Gossypium hirsutum), eastern black nightshade (Solanum ptycanthum), fall panicum (Panicum dichotomiflorum), field bindweed (Convolvulus arvensis), giant foxtail (Setaria faberii), hairy beggarticks (Bidens pilosa), ivyleaf morningglory (Ipomoea hederacea), johnsongrass (Sorghum halepense), ladysthumb smartweed (Polygonum persicaria), lambsquarters (Chenopodium album), large crabgrass (Digitaria sanguinalis), purple nutsedge (Cyperus rotundus), redroot pigweed (Amaranthus retroflexus), soybean (Glycine max), surinam grass (Brachiaria decumbens), velvetleaf (Abutilon theophrasti) and wild poinsettia (Euphorbia heterophylla).
(§3) Treated plants and untreated controls were maintained in a greenhouse for approximately 14, to 21 days, after which all treated plants were compared to untreated controls and visually evaluated. Plant response ratings, summarized in Table C, were based upon a 0 to 100 scale where 0 was no effect and 100 was complete control. A dash response (−) means no test result.

purple nutsedge = assay: Test C postemergence purple nutsedge; type: in vivo, Cyperus rotundus; conditions: 0 to 100 scale, 0 no effect, 100 complete control
Experimental: as §1, §2, §3

windgrass = assay: Test E windgrass; type: in vivo, Apera spica-venti; conditions: Postemergence; for Plant response rating, Windgrass: 0 to 100 scale
Experimental: Compounds evaluated in this test were formulated in a non-phytotoxic solvent mixture which included a surfactant and applied to plants that were in the 1- to 4-leaf stage (postemergence application). A mixture of sandy loam soil and greenhouse potting mix in a 60:40 ratio was used for the postemergence test.
(§4) Plantings of these crops and weed species were adjusted to produce plants of appropriate size for the postemergence test. All plant species were grown using normal greenhouse practices. Crop and weed species include annual bluegrass (Poa annua), blackgrass (Alopecurus myosuroides), black nightshade (Solanum nigra), chickweed (Stellaria media), common poppy (Papaver rhoeas), deadnettle (Lamium amplexicaule), downy brome (Bromus tectorum), field violet (Viola arvensis), galium (Galium aparine), green foxtail (Setaria viridis), Italian ryegrass (Lolium multiflorum), jointed goatgrass (Aegilops cylindrica), kochia (Kochia scoparia), lambsquarters (Chenopodium album), littleseed canarygrass (Phalaris minor), rape (Brassica napus), redroot pigweed (Amaranthus retroflexus), Russian thistle (Salsola kali), scentless chamomile (Matricaria inodora), spring barley (Hordeum vulgare), sugar beet (Beta vulgaris), sunflower (Helianthus annuus), ivyleaf speedwell (Veronica hederaefolia), spring wheat (Triticum aestivum), winter wheat (Triticum aestivum), wild buckwheat (Polygonum convolvulus), wild mustard (Sinapis arvensis), wild oat (Avena fatua), windgrass (Apera spica-venti) and winter barley (Hordeum vulgare).
(§5) Treated plants and untreated controls were maintained in a greenhouse for approximately 21 to 28 days, after which all treated plants were compared to untreated controls and visually evaluated. […] A dash response (-) means no test result.

spring barley = assay: Test E spring barley; type: in vivo, Hordeum vulgare; conditions: Postemergence; for Plant response rating, Spring Barley: 0 to 100 scale; for Spring Barley plant response rating: Rate 250 g/ha, 0 to 100 scale where 0 is no effect and 100 is complete control
How it was run: (§6)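 Postemergence: spray at 1–4 leaf stage, soil 60:40 sandy loam:potting mix; solvent + surfactant formulation; greenhouse 21–28 d; visual injury vs untreated controls.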

annual bluegrass [1] = assay: Test E annual bluegrass; type: in vivo, Poa annua; conditions: Preemergence; for Annual bluegras plant response rating (0 to 100 scale): Rate 250 g/ha
Russian thistle = assay: Test E Russian thistle; type: in vivo, Salsola kali; conditions: Postemergence; for Plant response rating, Russian thistle: 0 to 100 scale; for Russian thistle plant response rating: Rate 250 g/ha, 0 to 100 scale where 0 is no effect and 100 is complete control
Experimental: […] A mixture of sandy loam soil and greenhouse potting mix in a 60:40 ratio was used for the postemergence test.
as §4, §5

ivyleaf morningglory = assay: Test C postemergence ivyleaf morningglory; type: in vivo, Ipomoea hederacea; conditions: 0 to 100 scale, 0 no effect, 100 complete control
How it was run: (§7)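 Greenhouse postemergence test: compound applied in solvent/surfactant formulation to established plants; visual scoring 0–100 against untreated controls after roughly two to three weeks (14–21 days).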

lambsquarters = assay: Test C postemergence lambsquarters; type: in vivo, Chenopodium album; conditions: 0 to 100 scale, 0 no effect, 100 complete control
How it was run: as §7

annual bluegrass [2] = assay: Test E annual bluegrass; type: in vivo, Poa annua; conditions: Postemergence; for Plant response rating, Annual bluegras: 0 to 100 scale; for Annual bluegras plant response rating: Rate 250 g/ha, 0 to 100 scale where 0 is no effect and 100 is complete control
How it was run: as §6

littleseed canarygrass = assay: Test E littleseed canarygrass; type: in vivo, Phalaris minor; conditions: Preemergence; for LS canarygrass plant response rating (0 to 100 scale): Rate 250 g/ha
hairy beggarticks = assay: Test C postemergence hairy beggarticks; type: in vivo, Bidens pilosa; conditions: 0 to 100 scale, 0 no effect, 100 complete control
How it was run: as §7

Green foxtail [3] = assay: Test D green foxtail; type: in vivo; conditions: Rate 250 g/ha; Postemergence; 0 to 100 scale
bermuda-grass = assay: Test D bermudagrass; type: in vivo, Cynodon dactylon; conditions: Postemergence, 0 to 100 scale
Green foxtail [4] = assay: Test D green foxtail; type: in vivo; conditions: Postemergence, 0 to 100 scale, 0 no injury, 100 complete control
Green foxtail [5] = assay: Test D green foxtail; type: in vivo; conditions: Postemergence, 0 to 100 scale, 0 no injury, 100 complete control; remark: listed apart in the source
[6] = Rate 125 g/ha, 0 to 100 scale (0 no effect, 100 complete control)
[7] = Rate 500 g/ha, 0 to 100 scale where 0 is no effect and 100 is complete control
[8] = Rate 125 g/ha, 0 is no effect, 100 is complete control
[9] = Rate 500 g/ha, 0 is no effect, 100 is complete control
[10] = Rate 16 g/ha, 0 no injury, 100 complete control
[11] = Rate 32 g/ha, 0 no injury, 100 complete control
[12] = Rate 64 g/ha, 0 no injury, 100 complete control
[13] = Rate 125 g/ha, 0 no injury, 100 complete control

In the case of `CC(C)N(C(=O)n1oc(=O)n(C)c1=O)c1ccc(F)cc1` [Compound 138], the “Plant response rating, Sugar beet” value (sugar beet; [6]) is reported as 0, the “Sugar beet plant response rating (0 to 100 scale)” value (sugar beet) is reported as 50 and the “Plant response rating, Large crabgrass” value (large crabgrass; Rate 140 g/ha) is reported as 0. For the same compound, the “Plant response rating, Large crabgrass” value (large crabgrass; Rate 280 g/ha) was 10, the “Plant response rating, Large crabgrass” value (large crabgrass; Rate 560 g/ha) was 85 and the “Plant response rating, Large crabgrass” value (large crabgrass; Rate 1120 g/ha) was 85. For the same compound, the “Plant response rating, Purple nutsedge” value (purple nutsedge; Rate 140 g/ha) was 0, the “Plant response rating, Purple nutsedge” value (purple nutsedge; Rate 280 g/ha) was 0 and the “Plant response rating, Purple nutsedge” value (purple nutsedge; Rate 560 g/ha) was 50. For the same compound, the “Plant response rating, Purple nutsedge” value (purple nutsedge; Rate 1120 g/ha) was 70, the “Windgrass plant response rating” value (windgrass; Rate 250 g/ha, 0 to 100 scale where 0 is no effect and 100 is complete control) was 95 and the “Plant response rating, Spring Barley” value (spring barley; Rate 125 g/ha) was 0. For the same compound, the “Spring Barley plant response rating” value (spring barley) was 5, the “Annual bluegras plant response rating (0 to 100 scale)” value (annual bluegrass [1]) was 70 and the “Plant response rating, Russian thistle” value (Russian thistle; Rate 125 g/ha) was 0. The “Russian thistle plant response rating” value (Russian thistle) was 0, the “Plant response rating I. morningglory” value (ivyleaf morningglory; Rate 140 g/ha) was 0 and the “Plant response rating I. morningglory” value (ivyleaf morningglory; Rate 280 g/ha) was 0. The “Plant response rating I. morningglory” value (ivyleaf morningglory; Rate 560 g/ha) was 0, the “Plant response rating I. morningglory” value (ivyleaf morningglory; Rate 1120 g/ha) was 0 and the “Plant response rating Lambsquarters” value (lambsquarters; Rate 140 g/ha) was 0. For the same compound, the “Plant response rating Lambsquarters” value (lambsquarters; Rate 280 g/ha) was 0, the “Plant response rating Lambsquarters” value (lambsquarters; Rate 560 g/ha) was 10 and the “Plant response rating Lambsquarters” value (lambsquarters; Rate 1120 g/ha) was 20. For the same compound, the “Plant response rating, Annual bluegras” value (annual bluegrass [2]; Rate 125 g/ha) was 0, the “Annual bluegras plant response rating” value (annual bluegrass [2]) was 10 and the “Plant response rating, LS canarygrass” value (littleseed canarygrass; [6]) was 70. For the same compound, the “LS canarygrass plant response rating (0 to 100 scale)” value (littleseed canarygrass) was 85, the “Plant response rating H. beggarticks” value (hairy beggarticks; Rate 280 g/ha) was 10 and the “Plant response rating H. beggarticks” value (hairy beggarticks; Rate 1120 g/ha) was 80.
`CC(C)N(C(=O)n1oc(=O)n(C2CC2)c1=O)c1ccc(F)cc1` [Compound 242] was tested, and the “Plant response rating, Sugar beet” value (sugar beet; [6]) was 30, the “Sugar beet plant response rating (0 to 100 scale)” value (sugar beet) was 50 and the “Plant response rating, Sugar beet” value (sugar beet; [7]) was 65. The “Plant response rating, Large crabgrass” value (large crabgrass; Rate 140 g/ha) was 10, the “Plant response rating, Large crabgrass” value (large crabgrass; Rate 280 g/ha) was 30 and the “Plant response rating, Large crabgrass” value (large crabgrass; Rate 560 g/ha) was 85. For the same compound, the “Plant response rating, Large crabgrass” value (large crabgrass; Rate 1120 g/ha) was 85, the “Plant response rating, Purple nutsedge” value (purple nutsedge; Rate 140 g/ha) was 0 and the “Plant response rating, Purple nutsedge” value (purple nutsedge; Rate 280 g/ha) was 0. For the same compound, the “Plant response rating, Purple nutsedge” value (purple nutsedge; Rate 560 g/ha) was 10, the “Plant response rating, Purple nutsedge” value (purple nutsedge; Rate 1120 g/ha) was 80 and the “Plant response rating, Windgrass” value (windgrass; Rate 62 g/ha) was 90. For the same compound, the “Plant response rating, Windgrass” value (windgrass; [8]) was 95, the “Plant response rating, Windgrass” value (windgrass; [9]) was 95 and the “Plant response rating, Green foxtail” value (Green foxtail [3]) was 100. The “Plant response rating, Spring Barley” value (spring barley; Rate 62 g/ha) was 5, the “Plant response rating, Spring Barley” value (spring barley; [8]) was 20 and the “Spring Barley plant response rating” value (spring barley) was 20. For the same compound, the “Plant response rating, Spring Barley” value (spring barley; [9]) was 20, the “Plant response rating, Annual bluegras” value (annual bluegrass [1]; [6]) was 100 and the “Annual bluegras plant response rating (0 to 100 scale)” value (annual bluegrass [1]) was 100. The “Plant response rating, Annual bluegras” value (annual bluegrass [1]; [7]) was 100, the “Plant response rating, Russian thistle” value (Russian thistle; Rate 62 g/ha) was 50 and the “Plant response rating, Russian thistle” value (Russian thistle; [8]) was 0. For the same compound, the “Russian thistle plant response rating” value (Russian thistle) was 0, the “Plant response rating, Russian thistle” value (Russian thistle; [9]) was 0 and the “Plant response rating I. morningglory” value (ivyleaf morningglory; Rate 140 g/ha) was 0. For the same compound, the “Plant response rating I. morningglory” value (ivyleaf morningglory; Rate 280 g/ha) was 0, the “Plant response rating I. morningglory” value (ivyleaf morningglory; Rate 560 g/ha) was 0 and the “Plant response rating I. morningglory” value (ivyleaf morningglory; Rate 1120 g/ha) was 0. The “Plant response rating, Bermudagrass” value (bermuda-grass; [10]) was 90, the “Plant response rating, Bermudagrass” value (bermuda-grass; [11]) was 100 and the “Plant response rating, Bermudagrass” value (bermuda-grass; [12]) was 100. For the same compound, the “Plant response rating, Bermudagrass” value (bermuda-grass; [13]) was 100, the “Plant response rating, Bermudagrass” value (bermuda-grass; Rate 250 g/ha) was 100 and the “Plant response rating, Green foxtail” value (Green foxtail [4]; Rate 64 g/ha) was 100. The “Plant response rating, Green foxtail” value (Green foxtail [4]; Rate 125 g/ha) was 100, the “Plant response rating Lambsquarters” value (lambsquarters; Rate 140 g/ha) was 0 and the “Plant response rating Lambsquarters” value (lambsquarters; Rate 280 g/ha) was 0. The “Plant response rating Lambsquarters” value (lambsquarters; Rate 560 g/ha) was 0, the “Plant response rating Lambsquarters” value (lambsquarters; Rate 1120 g/ha) was 0 and the “Plant response rating, Annual bluegras” value (annual bluegrass [2]; Rate 62 g/ha) was 95. For the same compound, the “Plant response rating, Annual bluegras” value (annual bluegrass [2]; [8]) was 20, the “Annual bluegras plant response rating” value (annual bluegrass [2]) was 10 and the “Plant response rating, Annual bluegras” value (annual bluegrass [2]; [9]) was 80. The “Plant response rating, Green foxtail” value (Green foxtail [5]; Rate 16 g/ha) was 30, the “Plant response rating, Green foxtail” value (Green foxtail [5]; Rate 32 g/ha) was 100 and the “Plant response rating, LS canarygrass” value (littleseed canarygrass; [6]) was 100. The “LS canarygrass plant response rating (0 to 100 scale)” value (littleseed canarygrass) was 100, the “Plant response rating, LS canarygrass” value (littleseed canarygrass; [7]) was 100 and the “Plant response rating H. beggarticks” value (hairy beggarticks; Rate 1120 g/ha) was 90.
With `CC(C)N(C(=O)n1oc(=O)n(C2CCCCCC2)c1=O)c1ccc(F)cc1F` [Compound 342] the “Plant response rating, Green foxtail” value (Green foxtail [3]) was 100, the “Plant response rating, Bermudagrass” value (bermuda-grass; [10]) was 20 and the “Plant response rating, Bermudagrass” value (bermuda-grass; [11]) was 30. The “Plant response rating, Bermudagrass” value (bermuda-grass; [12]) was 90, the “Plant response rating, Bermudagrass” value (bermuda-grass; [13]) was 100 and the “Plant response rating, Bermudagrass” value (bermuda-grass; Rate 250 g/ha) was 100. The “Plant response rating, Green foxtail” value (Green foxtail [4]; Rate 64 g/ha) was 0, the “Plant response rating, Green foxtail” value (Green foxtail [4]; Rate 125 g/ha) was 60 and the “Plant response rating, Green foxtail” value (Green foxtail [5]; Rate 16 g/ha) was 0. For the same compound, the “Plant response rating, Green foxtail” value (Green foxtail [5]; Rate 32 g/ha) was 0.
